Measured values as given in patent US11076597B2, “High stress resistant plant growth regulator and preparation method and use thereof” (SHANGHAI INSTITUTES FOR BIOLOGICAL SCIENCES, CHINESE …, priority 2015, dated 2021).
“Also recorded” adds a separate entry of the source. Like-named read-outs stand apart in the source and are kept apart here.

How the values were obtained:
[1] = target: T1, PYL2 receptor-HAB1 protein phosphatase complex (Arabidopsis thaliana, UniProt O80992); assay: AlphaScreen assay: promotion of PYL2 receptor binding to PP2C protein phosphatase HAB1; conditions: 6×His-SUMO-tagged PYL2 (aa 14-188), Biotin-tagged HAB1 (aa 172-511), 100 nM each, pH 7.4, 1.5 h room temperature
T1 construct: made in house; host or cells: E. coli BL21 (DE3)
T1 sequence (O80992 14-188): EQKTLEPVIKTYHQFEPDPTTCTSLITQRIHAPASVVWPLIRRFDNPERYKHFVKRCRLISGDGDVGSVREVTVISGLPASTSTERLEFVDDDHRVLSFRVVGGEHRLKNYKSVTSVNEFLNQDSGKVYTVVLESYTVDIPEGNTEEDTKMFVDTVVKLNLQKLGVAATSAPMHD
T1 sequence (Q9CAJ0 172-511 partner limits assumed): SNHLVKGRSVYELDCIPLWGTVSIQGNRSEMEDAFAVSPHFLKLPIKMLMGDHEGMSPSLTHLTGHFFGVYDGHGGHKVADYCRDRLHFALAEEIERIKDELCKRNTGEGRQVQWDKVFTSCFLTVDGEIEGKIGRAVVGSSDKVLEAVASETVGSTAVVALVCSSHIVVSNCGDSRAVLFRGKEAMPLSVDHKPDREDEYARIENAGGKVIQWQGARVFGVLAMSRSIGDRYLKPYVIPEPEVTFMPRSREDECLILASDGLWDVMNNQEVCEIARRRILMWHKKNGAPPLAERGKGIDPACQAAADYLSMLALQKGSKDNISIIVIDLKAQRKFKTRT
Excerpt: The construction method of recombinant plasmids for the Arabidopsis thaliana genes PYL1 (amino acid sequence 36-211), PYL2 (amino acid sequence 14-188) with dual tags of 6×His and SUMO sequence and the Arabidopsis thaliana gene HAB1 (amino acid sequence 172-511) with the Biotin tag sequence is described in detail in “A gate-latch-lock mechanism for hormone signaling by abscisic acid receptors” (Nature, Vol 462, 2009). The construction method of recombinant plasmids for PYR1 and PYL7 (whole gene coding sequence) and Soybean GmPYL6 and rice OsPYL2 with dual tags of 6×His and SUMO sequence is the same as that for Arabidopsis PYL2.
The above recombinant plasmid is transformed into competent cell of E. coli BL21 (DE3) (purchased from NEB company), and inoculated into 200 ml of LB liquid medium containing Amp resistance (purchased from OXOID company) and cultured overnight at 37° C. at 200 rpm; and inoculated into 2 L of LB liquid medium containing Amp resistance at a ratio of 1:50-1:100 for an extended culture, and cultured at 37° C., 200 rpm for 3-4 hours, and at a low temperature of 16° C. until OD600 is about 0.8-1.0. Recombinant plasmids for PYR1/PYL1/PYL2/PYL7/GmPYL6/OsPYL2 with dual tags of 6×His and SUMO sequence were induced overnight with 100 μM of IPTG while HAB1 recombinant plasmid with the Biotin tag sequence was induced simultaneously with 100 μM of IPTG and 40 μM of biotin.
After 16 hours of induction, the bacterial solution was centrifuged at 4000 rpm for 20 minutes at 4° C. in a low-speed high-capacity centrifuge, and the bacteria cells were collected. Bacteria cells were resuspended in 50 ml of extraction buffer (containing 20 mM Tris, pH 8.0, 200 mM NaCl and 10% (v/v) glycerol) for per 2 L of bacterial solution and then subjected to pressure-breaking at […] and 4° C. for 3-5 times. The broken cells were subjected to ultracentrifugation, centrifuged at 16000 rpm for 30 minutes, and this process was repeated twice. The supernatant was collected and subjected to an affinity chromatography column.
For PYR/PYL proteins with dual tags of 6×His and SUMO sequences, 50 ml of affinity chromatography Ni column (50 ml Ni-NTA column, available from GE) was used. Firstly, the column was equilibrated with 600 ml of 10% buffer B (containing 20 mM Tris, PH 8.0, 200 mM NaCl, 500 mM imidazole and 10% glycerol), and then eluted with 200 ml of 50% buffer B and finally eluted with 100 ml of 100% buffer B. Proteins for crystal analysis were mixed with ulp1 enzyme at a molar ratio of 1000:1 for enzymatic dialysis overnight. The digested proteins were subjected to affinity chromatography on a Ni column once more. The collected solution was subjected to a HiLoad 26/60 Superdex200 gel filtration column (commercially available from GE) and eluted with an elution solution (containing 25 mM Tris, pH 8.0, 200 mM ammonium acetate, 1 mM dithiotreitol and 1 mM EDTA) to further separate and purify the protein.
For a HAB1 protein with a Biotin tag sequence, it was subjected to a 50 ml MBP affinity column (available from GE). The column was firstly equilibrated with 600 ml of 10% buffer C (containing 20 mM Tris, pH 8.0, 200 mM NaCl, 10 mM Maltose and 10% Glycerol), and eluted with 200 ml of 50% buffer C and finally eluted with 100 ml of 100% buffer C. The collection solution was subjected to a HiLoad 26/60 Superdex200 gel filtration column and eluted with an elution solution (containing 20 mM Tris, pH 8.0, 200 mM NaCl and 10% Glycerol) to further separate and purify the protein. […]

Arabidopsis aba2-1 = assay: Leaf transpiration experiment (leaf temperature by thermal imager), Arabidopsis; assay type: in vivo, Arabidopsis thaliana; conditions: for duration of the leaf temperature increase: FIG. 4a, 4c; for inhibitory effect on leaf transpiration compared with ABA: Arabidopsis aba2-1, spray
Description: ABA synthesis mutant aba2-1 was used in Arabidopsis leaf transpiration experiment. […] Therefore, this mutant is used to exclude the effect of endogenous ABA on the transpiration experiment. The plants were sprayed with a solution containing 0.05% tween-20 and corresponding concentrations of (+)-ABA/0224/0304/0706/0715/0428 or 0.05% Tween-20 and 0.05% DMSO (control) after three weeks of continuous watering with an amount of 1.2 ml/pot. Leaf transpiration experiments of soybeans were conducted at 26° C. with long-day lighting and soybeans were sprayed with a solution containing 0.1% tween-20 and 20 μM (+)-ABA/0224/0304 compound or 0.1% Tween-20 and 0.05% DMSO (control) 14 days after sowing with an amount of 4 ml/pot; the leaf transpiration experiments of cottons were sprayed with a solution containing 0.1% tween-20 and 20 μM (+)-ABA/0224 compound or 0.1% Tween-20 and 0.05% DMSO, respectively, 25 days after sowing with an amount of 4 ml/pot; the leaf transpiration experiments of wheats were sprayed with a solution containing 0.1% tween-20 and 100 μM (+)-ABA/0224 compound or 0.1% Tween-20 and 0.05% DMSO (control) 18 days after sowing with an amount of 6 ml/pot. Images were taken daily using the FLIR A655sc thermal imager at the same time before and after spraying.
In this experiment, the temperature change of leaf surface was observed and recorded by an infrared camera, thus reflecting the strength of plant transpiration. The stronger the transpiration, the lower the leaf temperature.

[2] = 5 μM spray, after spraying, FIG. 4a-4c
[3] = 5 μM spray, four days after spraying

EC50 ([1]; FIG. 2e, read-out: EC50) [nM]	EC50 ([1]; FIG. 2c, read-out: EC50) [nM]	Structure (SMILES)	leaf temperature versus DMSO control (leaf transpiration) (Arabidopsis aba2-1; [2])	duration of the leaf temperature increase (Arabidopsis aba2-1; 5 μM spray)	leaf temperature versus DMSO control (leaf transpiration) (Arabidopsis aba2-1; [3])	inhibitory effect on leaf transpiration compared with ABA (Arabidopsis aba2-1)	also measured
		CCCN1C(=O)OCc2cc(NS(=O)(=O)Cc3c(F)c(F)c(C)c(F)c3F)ccc21 [Compound 0428]					EC50 ([1]; FIG. 2f, read-out: EC50): 19.3 nM; leaf temperature versus DMSO control (leaf transpiration) (Arabidopsis aba2-1; 5 μM/2 μM/1 μM, treated for one day, FIG. 4d): significantly increased compared to that with DMSO treatment; also recorded: higher than that in the DMSO control group
99.5		Cc1c(F)c(F)c(CS(=O)(=O)Nc2ccc3c(c2)C(C)OC(=O)N3CCCF)c(F)c1F (stereo not shown) [Compound 0715]	significantly increased compared to that with control (DMSO) treatment; also recorded: significantly increased compared to the control (DMSO) treatment	equivalent to that of 0224			
		CC1=CC(=O)CC(C)(C)[C@@]1(O)/C=C/C(C)=C\C(=O)O [ABA, Abscisic Acid, reference compound]	significantly increased compared to that with control (DMSO) treatment; also recorded: the leaf temperature was higher than that in the DMSO control group		had dropped to the level before spraying		EC50 ([1]; EC50, FIG. 2c): 866 nM; EC50 ([1]; EC50, FIG. 2e): 4960 nM; EC50 ([1]; EC50, FIG. 2f): 148 nM; EC50 ([1]; EC50, FIG. 2g): 3570 nM
101		CCN1C(=O)OC(C)c2cc(NS(=O)(=O)Cc3c(F)c(F)c(C)c(F)c3F)ccc21 (stereo not shown) [Compound 0706]	significantly increased compared to that with control (DMSO) treatment; also recorded: significantly increased compared to the control (DMSO) treatment	equivalent to that of 0224			
	59.3	CCCN1C(=O)OC(C)(C)c2cc(NS(=O)(=O)Cc3c(F)c(F)c(C)c(F)c3F)ccc21 [Compound 0304]	significantly increased compared to that with control (DMSO) treatment; also recorded: the leaf temperature was higher than that in the DMSO control group		still significantly higher than that in the DMSO control	better than that of ABA	
92.1	29.6	CCCN1C(=O)OC(C)c2cc(NS(=O)(=O)Cc3c(F)c(F)c(C)c(F)c3F)ccc21 (stereo not shown) [Compound 0224]	significantly increased compared to that with control (DMSO) treatment; also recorded: the leaf temperature was higher than that in the DMSO control group	longer	still significantly higher than that in the DMSO control	better than that of ABA	leaf temperature versus DMSO control (leaf transpiration) (Arabidopsis aba2-1; 2 μM or 1 μM spray, four days after spraying, FIG. 4b): still significantly increased compared to that with control (DMSO) treatment; also recorded: still significantly higher than that in the DMSO control
